The target in assay [1] is T1, GlmR (Bacillus subtilis, UniProt O06974).
T1 construct: gene mgfK; purified recombinant B. subtilis GlmR, FITC-labeled (pET28a, from E. coli)
Description: fluorescence titration of FITC-labeled GlmR, single-site fit. It counts as binding.

The target in assay [2] is T2, GlmR (Bacillus subtilis, UniProt O06974, T304A).
T2 construct: gene mgfK; purified recombinant B. subtilis GlmR T304A, FITC-labeled (pET28a, from E. coli)
The assay can be described thus: fluorescence titration of FITC-labeled GlmR T304A, single-site fit. It counts as binding.

T1 sequence (O06974 whole entry): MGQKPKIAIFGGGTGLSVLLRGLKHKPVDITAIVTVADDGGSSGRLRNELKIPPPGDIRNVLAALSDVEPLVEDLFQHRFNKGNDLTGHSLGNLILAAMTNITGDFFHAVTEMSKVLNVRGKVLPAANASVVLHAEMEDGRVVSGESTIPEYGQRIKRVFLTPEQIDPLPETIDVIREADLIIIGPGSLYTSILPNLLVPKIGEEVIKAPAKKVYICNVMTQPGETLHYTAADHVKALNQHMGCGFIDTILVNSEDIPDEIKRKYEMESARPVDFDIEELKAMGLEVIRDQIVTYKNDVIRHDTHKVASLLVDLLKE
T2 sequence (O06974 whole entry T304A): as the sequence (O06974 whole entry) above, with T304A counted along it

`CC(=O)N[C@H]1[C@@H](OP(=O)(O)OP(=O)(O)OC[C@H]2O[C@@H](n3ccc(=O)[nH]c3=O)[C@H](O)[C@@H]2O)O[C@H](CO)[C@@H](O)[C@@H]1O` [UDP-GlcNAc]: the figures for the dissociation constant (Kd) in assay [1] and in assay [2] were 280 ± 40 µM and 1670 ± 310 µM, respectively.

The values above are taken from PMC13046274, “Post-translational modifications of GlmR integrate metabolic and stress signals to maintain cell envelope homeostasis in Bacillus subtilis” (PLOS Genetics, 2026).
